Key:
[1] = 4.0 mL PBS + 20 mg binder, mixed 1 h at room temperature; hypothetical results; dihydrate
Description: Exemplary stock solutions suitable for phosphate-binding assays include the following: phosphate-binding solution (“PBS”) containing 10 mM KH2PO4, 30 mM Na2CO3, 80 mM NaCl, as described in Rosenbaum et al. Nephrol. Dial. Transplant. 12:961-964 (1997); acetate buffer (“AB”) solution containing 0.1N acetic acid, 0.025N sodium acetate, as described in Lowry & Lopez J. Biol. Chem. 162:421-428 (1946); ammonium molybdate (“AM”) solution containing 1% ammonium molybdate in 0.05N H2SO4, as described in Lowry & Lopez; ascorbic acid (“AA”) solution containing 1% ascorbic acid in H2O, as described in Lowry & Lopez.
In general, the phosphate-binding assays are conducted in 12×75 mm glass tubes. 4.0 mL PBS and 20 mg putative phosphate binder are added to a glass tube and then mixed for 1 h at room temperature. 0.1 mL supernatant is pipetted from this tube to a new test tube. 3.0 mL AB, 0.3 mL AA and 0.3 mL AM solutions are added and O.D. is measured at 700 nm after 10 minutes.
The phosphate binding capacity was calculated as follows (mcg stands for micrograms): ((O.D. of sample×95)/O.D. of standard)×40=(mcg)PO4 left in solution ((3800(mcg)PO4 left)×50)/1000=(mcg)PO4 bound per gram of phosphate binder.
The phosphate binding capacities of samples of magnesium glycinate dihydrate produced by the process of Example 1 are measured. X-ray powder diffraction is conducted on each of the samples to verify that they consist of the polymorph described in Example 2.

[2] = as described in the '012 application, cited from earlier work

Compound | PO4 binding [1] [mg/g] | other results
O=C1C[NH][Mg]2([OH])([OH])([NH]CC(=O)[O]2)[O]1 [Sample 1, magnesium glycinate dihydrate] | 175.0 | –
O=C1C[NH][Mg]2([OH])([OH])([NH]CC(=O)[O]2)[O]1 [Sample 2, magnesium glycinate dihydrate] | 177.0 | –
O=C1C[NH][Mg]2([OH])([OH])([NH]CC(=O)[O]2)[O]1 [Sample 3, magnesium glycinate dihydrate] | 176.2 | –
O=C1C[NH][Mg]2([OH])([OH])([NH]CC(=O)[O]2)[O]1 [Sample 4, magnesium glycinate dihydrate] | 178.1 | –
[Cl-].[Cl-].[Mg+2] [magnesium chloride] | – | ability to bind phosphate ([2]; formed from magnesium glycinate and stomach acid (HCl)): does not have the ability to bind phosphate in appreciable quantities
magnesium glycinate [magnesium glycinate salt] | – | ability to bind phosphate per gram ([2]; in vitro phosphate binding assay): at least 50 mg phosphate per gram
